Test results published in ChEMBL document CHEMBL2163292, “1,2,3-Triazole-containing uracil derivatives with excellent pharmacokinetics as a novel class of potent human deoxyuridine triphosphatase inhibitors” (J Med Chem, 2012).

Legend:
MX1 [1] = assay: Antitumor activity against human MX1 cells xenografted in Balb/cA JcL-nu mouse assessed as tumor growth inhibition at 15 mg/kg/day, […] as continuous infusion using osmotic pump and measured twice a week relative to untreated control; format: functional
MX1 [2] = assay: Antitumor activity against human MX1 cells xenografted in Balb/cA JcL-nu mouse assessed as tumor growth inhibition at 300 mg/kg/day, po for 14 days and measured twice a week relative to untreated control; format: functional; details: MX1, 336 h
[3] = target: T1, Deoxyuridine 5'-triphosphate nucleotidohydrolase, mitochondrial (Homo sapiens, UniProt P33316); assay: Inhibition of human dUTPase assessed as reduction in [5-3H]dUMP production incubated for 15 mins by HPLC
T1 sequence (P33316 whole entry): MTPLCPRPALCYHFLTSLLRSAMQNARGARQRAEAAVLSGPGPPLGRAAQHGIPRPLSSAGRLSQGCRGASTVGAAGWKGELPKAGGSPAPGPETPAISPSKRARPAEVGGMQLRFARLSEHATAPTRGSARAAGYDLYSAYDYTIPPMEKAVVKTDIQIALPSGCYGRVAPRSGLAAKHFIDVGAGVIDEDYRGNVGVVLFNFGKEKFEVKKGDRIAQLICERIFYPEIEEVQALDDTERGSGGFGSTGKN

Mus musculus [4] = assay: Toxicity in Balb/cA JcL-nu mouse xenografted with human MX1 cells assessed as body weight loss at 300 mg/kg/day, po for 14 days co-treated with 5-FU at 15 mg/kg/day for 14 days and measured twice a week relative to untreated control; format: organism-based; details: in vivo, 336 h
Mus musculus [5] = assay: Metabolic stability in Balb/cA mouse assessed as metabolite formation at 50 mg/kg, po administered as single dose measured after 0.5 hrs by reverse-phase ultra performance liquid chromatography; format: ADME, organism-based; design: dose 50 mg/kg, route oral; details: in vivo
[6] = Cytotoxicity against human HeLaS3 cells incubated for 72 hrs by crystal violet assay; format: functional, cell-based; details: HeLa S3, 72 h
[7] = Tmax in Balb/cA mouse at 50 mg/kg, po administered as single dose by reverse-phase ultra performance liquid chromatography; format: ADME, organism-based; design: dose 50 mg/kg, route oral; details: in vivo
[8] = Half life in Balb/cA mouse at 50 mg/kg, po administered as single dose by reverse-phase ultra performance liquid chromatography; format: ADME, organism-based; design: dose 50 mg/kg, route oral; details: in vivo
[9] = AUC (0 to t) in Balb/cA mouse at 50 mg/kg, po administered as single dose by reverse-phase ultra performance liquid chromatography; format: ADME, organism-based; design: dose 50 mg/kg, route oral; details: plasma
MX1 [10] = assay: Potentiation of 5-FU induced antitumour activity against human MX1 cells xenografted in Balb/cA JcL-nu mouse assessed as tumor growth inhibition at 300 mg/kg/day, po for 14 days co-treated with 5-FU at 15 mg/kg/day for 14 days and measured twice weekly relative to untreated control; format: functional
[11] = Cmax in Balb/cA mouse at 50 mg/kg, po administered as single dose by reverse-phase ultra performance liquid chromatography; format: ADME, organism-based; design: dose 50 mg/kg, route oral; details: in vivo

SMILES | IC50 [3] | further results
O=c1[nH]cc(F)c(=O)[nH]1 [FLUOROURACIL] |  | inhibition in vivo at 15 mg/kg/day (MX1 [1]): 20%
CC[C@@](O)(Cn1nncc1CCCCn1ccc(=O)[nH]c1=O)c1ccc(F)c(OCC2CC2)c1 | 67 nM | inhibition in vivo at 300 mg/kg/day (MX1 [2]): -23.2%; Activity (Mus musculus [4]): Non-toxic; Stability (Mus musculus [5]): Stable; EC50 [6]: 41000 nM; Tmax [7]: 60 min; half-life [8]: 60 min; AUC(0-t) [9]: 57.3 µM·h; inhibition (INH) (MX1 [10]): 84.9%; Cmax [11]: 49.8 µM
CC[C@H](Cn1nncc1CCCCn1ccc(=O)[nH]c1=O)c1cccc(OCC2CC2)c1 | 720 nM | 
O=c1ccn(CCCCc2cnnn2CC(c2ccccc2)c2ccccc2)c(=O)[nH]1 | 740 nM | 
CCOc1cccc([C@@](O)(CC)Cn2nncc2CCCCn2ccc(=O)[nH]c2=O)c1 | > 1000 nM | 
C[C@H](Cn1nncc1CCCCn1ccc(=O)[nH]c1=O)c1cccc(OCC2CC2)c1 | 870 nM | 
COc1cccc(CCn2nncc2CCCCn2ccc(=O)[nH]c2=O)c1 | 4100 nM | 
O=c1ccn(CCCCc2cnnn2CCc2ccccc2)c(=O)[nH]1 | 3500 nM | 
CC[C@@](O)(Cn1nncc1CCCCn1ccc(=O)[nH]c1=O)c1cccc(OCC2(C)CC2)c1 | 630 nM | 
C=CCOc1cccc([C@@](O)(CC)Cn2nncc2CCCCn2ccc(=O)[nH]c2=O)c1 | 360 nM | 
CC[C@@](O)(Cn1nncc1CCCCn1ccc(=O)[nH]c1=O)c1cccc(OC2CCOCC2)c1 | > 1000 nM | 
O=c1ccn(CCCCc2cnnn2CCc2cccc(OCC3CC3)c2)c(=O)[nH]1 | 210 nM | EC50 [6]: 84000 nM
COc1ccc(CCn2nncc2CCCCn2ccc(=O)[nH]c2=O)cc1 | > 10000 nM | 
O=c1ccn(CCCc2cnnn2CC(c2ccccc2)c2ccccc2)c(=O)[nH]1 | 1300 nM | EC50 [6]: > 100000 nM
O=c1ccn(CCCCc2cnnn2CCc2ccccc2OCC2CC2)c(=O)[nH]1 | 390 nM | 
CC[C@@H](Cn1nncc1CCCCn1ccc(=O)[nH]c1=O)c1cccc(OCC2CC2)c1 | 29 nM | Stability (Mus musculus [5]): Unstable; EC50 [6]: 22000 nM; Tmax [7]: 30 min; half-life [8]: 30 min; AUC(0-t) [9]: 4.56 µM·h; Cmax [11]: 8.69 µM
O=c1ccn(CCCCc2cnnn2C(c2ccccc2)c2ccccc2)c(=O)[nH]1 | 1600 nM | 
O=c1ccn(CCCc2cnnn2CCc2ccccc2)c(=O)[nH]1 | > 10000 nM | 
CC[C@](O)(Cn1nncc1CCCCn1ccc(=O)[nH]c1=O)c1cccc(OCC2CC2)c1 | > 1000 nM | 
CC[C@@](O)(Cn1nncc1CCCCn1ccc(=O)[nH]c1=O)c1cccc(OCC2CC2)c1 | 150 nM | Tmax [7]: 30 min; half-life [8]: 60 min; AUC(0-t) [9]: 67.4 µM·h; Cmax [11]: 62.1 µM
COc1ccccc1CCn1nncc1CCCCn1ccc(=O)[nH]c1=O | 5700 nM | 
CC[C@@](O)(Cn1nncc1CCCCn1ccc(=O)[nH]c1=O)c1cccc(OCC2CCC2)c1 | 150 nM | 
C[C@@H](Cn1nncc1CCCCn1ccc(=O)[nH]c1=O)c1cccc(OCC2CC2)c1 | 58 nM | 
CC[C@](O)(Cn1nncc1CCCCn1ccc(=O)[nH]c1=O)c1ccc(F)c(OCC2CC2)c1 | 350 nM | 
CC[C@@](O)(Cn1nncc1CCCCn1ccc(=O)[nH]c1=O)c1cccc(OCC(C)C)c1 | 550 nM | 
O=c1ccn(CCCc2cnnn2C(c2ccccc2)c2ccccc2)c(=O)[nH]1 | > 10000 nM | 
CC[C@@](O)(Cn1nncc1CCCCn1ccc(=O)[nH]c1=O)c1cccc(OC2CCCC2)c1 | 210 nM | 
CC[C@@](O)(Cn1nncc1CCOCn1ccc(=O)[nH]c1=O)c1cccc(OCC2CC2)c1 | 170 nM | 
